In patent US10702498B2 (priority 2015, dated 2020):
Like-named read-outs stand apart in the source and are kept apart here.

Key:
[1] = biological target: κOR (Homo sapiens (Human), UniProt P41145); format: binding; conditions: no Ki given
[2] = biological target: hMOR + Gqi5 (Homo sapiens (Human), UniProt P35372); assay: IP accumulation assay; format: cell-based; conditions: % morphine
[3] = biological target: hKOR (Homo sapiens (Human), UniProt P41145); assay: Receptor binding, [3H]diprenorphine
hKOR, sequence (P41145 whole entry): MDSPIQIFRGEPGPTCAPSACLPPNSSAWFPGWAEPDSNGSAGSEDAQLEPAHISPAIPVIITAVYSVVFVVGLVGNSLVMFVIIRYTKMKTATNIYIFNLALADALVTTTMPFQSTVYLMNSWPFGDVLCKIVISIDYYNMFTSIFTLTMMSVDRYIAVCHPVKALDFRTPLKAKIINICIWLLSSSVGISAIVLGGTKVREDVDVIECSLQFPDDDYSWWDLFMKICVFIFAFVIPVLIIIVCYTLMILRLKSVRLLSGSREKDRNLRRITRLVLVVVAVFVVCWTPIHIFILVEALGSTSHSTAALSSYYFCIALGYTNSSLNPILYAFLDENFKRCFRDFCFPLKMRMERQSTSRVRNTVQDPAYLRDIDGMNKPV

[4] = biological target: humanDOR (Homo sapiens (Human), UniProt P41143); assay: Receptor binding, [3H]diprenorphine
humanDOR, sequence (P41143 whole entry): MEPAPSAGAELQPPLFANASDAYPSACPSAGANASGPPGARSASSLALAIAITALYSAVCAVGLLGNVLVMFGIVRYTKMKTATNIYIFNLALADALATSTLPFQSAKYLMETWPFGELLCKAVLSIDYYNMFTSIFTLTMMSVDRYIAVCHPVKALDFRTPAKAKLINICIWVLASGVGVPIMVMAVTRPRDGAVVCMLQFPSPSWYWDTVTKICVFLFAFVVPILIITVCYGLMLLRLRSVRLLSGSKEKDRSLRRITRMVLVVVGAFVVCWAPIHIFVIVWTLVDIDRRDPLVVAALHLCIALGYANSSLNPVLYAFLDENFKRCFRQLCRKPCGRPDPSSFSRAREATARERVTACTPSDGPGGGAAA

[5] = biological target: T1, MOR (Homo sapiens (Human), UniProt P35372); assay: Receptor binding, [3H]diprenorphine
T1 sequence (P35372 whole entry): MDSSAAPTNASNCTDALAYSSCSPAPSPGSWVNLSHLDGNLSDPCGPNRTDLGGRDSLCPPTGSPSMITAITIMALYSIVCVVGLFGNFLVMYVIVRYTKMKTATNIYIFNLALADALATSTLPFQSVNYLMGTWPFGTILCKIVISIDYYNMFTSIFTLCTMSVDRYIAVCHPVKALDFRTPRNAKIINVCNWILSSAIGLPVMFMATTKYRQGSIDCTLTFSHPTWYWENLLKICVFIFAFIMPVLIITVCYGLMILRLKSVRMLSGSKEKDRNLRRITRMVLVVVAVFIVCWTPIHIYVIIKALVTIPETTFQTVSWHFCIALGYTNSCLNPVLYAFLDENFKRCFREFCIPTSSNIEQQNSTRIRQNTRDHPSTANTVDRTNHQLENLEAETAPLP

[6] = biological target: μOR (Homo sapiens (Human), UniProt P35372); assay: BRET-based cAMP accumulation assay (Gi/o signaling, SAR of PZM21-29); format: cell-based; conditions: for loss of potency in Gi/o signaling assay: compared to parent reference compound (PZM22)
[7] = biological target: T1, MOR; assay: Functional annotation (MOR agonist / antagonist), method not stated

Question: With `Cc1nc(CNC(=O)NC[C@@H](Cc2ccccc2)N(C)C)sc1C` [compound 15] as the compound, how does the “κOR binding, given as <50%” value [1] read?
Answer: The value was <50%.

Question: Which “κOR binding, given as <50%” value [1] does the source give for `CN(Cc1nnc(C2CC2)n1C)C(=O)NC[C@@H](Cc1ccccc1)N(C)C` [compound 10] here?
Answer: The value was <50%.

Question: Which “hMOR + Gqi5 IP accumulation assay efficacy a @ 10 μM” value ([2]; @ 10 μM) does the source give for `Cc1cc(O)cc(C)c1C[C@@H](CNC(=O)N[C@H](C)Cc1ccsc1)N(C)C` [BD 131LR, 1-((S)-2-(dimethylamino)-3-(4-hydroxy-2,6-dimethylphenyl)propyl)-3-((R)-1-(thiophen-3-yl)propan-2-yl)urea] here?
Answer: Its value is “@ 10 μM a: 10%”.

Question: How did the “κOR binding, given as <50%” value [1] turn out when `CN(C)[C@@H](CNC(=O)NC[C@@H](O)c1cnn(C)c1)Cc1ccccc1` [compound 11] was run?
Answer: Its value is <50%.

Question: Which Ki ([3]; binding affinity Ki [nM] hKOR) does the source give for `C[C@H](Cc1ccsc1)NC(=O)NC[C@H](Cc1ccc(O)cc1)N(C)C` (stereo in doubt) [BD 122LR] here?
Answer: Its Ki is 190 nM.

Question: What about the Ki ([3]; hKOR [3H]dyprenorphine Ki) of the same compound?
Answer: Its Ki is 190 ± 23 nM.

Question: What about the Ki [4] of the same compound?
Answer: Its Ki is 88 ± 16 nM.

Question: What about the Ki ([4]; read-out: binding affinity Ki [nM] hDOR) of the same compound?
Answer: The Ki was 88 nM.

Question: What about the “hMOR + Gqi5 IP accumulation assay efficacy a” value [2] of the same compound?
Answer: The value was “a: 17%”.

Question: With `COc1ccc(CCNC(=O)NC[C@H](Cc2ccc(O)cc2)N(C)C)cc1` [DD201, (S)-1-(2-(dimethylamino)-3-(4-hydroxyphenyl)propyl)-3-(4-methoxyphenethyl)urea] as the compound, how does the Ki [3] read?
Answer: The Ki was 1500 nM.

Question: What about the Ki [4] of the same compound?
Answer: Its Ki is 10000 nM.

Question: What about the Ki [5] of the same compound?
Answer: The Ki was 330 nM.

Question: What does the source list for `CN(C)[C@H](CNC(=O)NCCc1ccc(F)cc1)Cc1ccc(O)cc1` [DDLM-15, (S)-1-(2-(dimethylamino)-3-(4-hydroxyphenyl)propyl)-3-(4-fluorophenethyl)urea]?
Answer: Ki ([3]; binding affinity Ki [nM] hKOR): 190 nM; Ki [4]: 250 nM; Ki ([5]; binding affinity Ki [nM] hMOR): 27 nM

Question: What does the source list for `CN(C)[C@H](CNC(=O)NCCc1cccc(F)c1)Cc1ccc(O)cc1` [DDLM-10, (S)-1-(2-(dimethylamino)-3-(4-hydroxyphenyl)propyl)-3-(3-fluorophenethyl)urea]?
Answer: Ki ([3]; binding affinity Ki [nM] hKOR): 170 nM; Ki [4]: 250 nM; Ki ([5]; binding affinity Ki [nM] hMOR): 36 nM

Question: With `CN(CC1CC1)[C@H](CNC(=O)NCCc1ccccc1)Cc1ccc(O)cc1` [PZM27, (S)-1-(2-((Cyclopropylmethyl)(methyl)amino)-3-(4-hydroxyphenyl)propyl)-3-phenethylurea×CF3COOH] as the compound, how does the “agonist efficacy / potency in Gi/o signaling assay” value [6] read?
Answer: The value was “decreased efficacy”.

Question: What about the “loss of potency in Gi/o signaling assay” value [6] of the same compound?
Answer: The value was 30 fold.

Question: For `CN(C=O)[C@H](CNC(=O)NCCc1ccccc1)Cc1ccc(O)cc1` [PZM28, (S)—N-(1-(4-Hydroxyphenyl)-3-(3-phenethylureido)propan-2-yl)-N-methylformamide], which “loss of potency in Gi/o signaling assay” value [6] is on record?
Answer: Its value is 1000 fold.

Question: How did the “functional mode” value [7] turn out when `Cc1cc(O)cc(C)c1C[C@@H](CNC(=O)NCCN1C(=O)C=CC1=O)N(C)C` [DD 144, (S)-1-(2-(dimethylamino)-3-(4-hydroxy-2,6-dimethylphenyl)propyl)-3-(2-(2,5-dioxo-2,5-dihydro-1H-pyrrol-1-yl)ethyl)urea] was run?
Answer: Its value is “DD 144 (ANTAGONIST, Covalent) [drawing 452]”.

Question: Which “agonist efficacy / potency in Gi/o signaling assay” value [6] does the source give for `CN(C)[C@H](CNC(=O)NCCc1cn(CCSSCCN=[N+]=[N-])nn1)Cc1ccc(O)cc1` [PZM29, (S)-1-(2-(1-(2-((2-Azidoethyl)disulfanyl)ethyl)-1H-1,2,3-triazol-4-yl)ethyl)-3-(2-(dimethylamino)-3-(4-hydroxyphenyl)propyl)urea×CF3COOH] here?
Answer: The value was “retains its efficacy as an agonist”.

Question: What does the source list for `COc1ccccc1CCNC(=O)NC[C@H](Cc1ccc(O)cc1)N(C)C` [DD198, (S)-1-(2-(dimethylamino)-3-(4-hydroxyphenyl)propyl)-3-(2-methoxyphenethyl)urea]?
Answer: Ki ([3]; binding affinity Ki [nM] hKOR): 140 nM; Ki [4]: 150 nM; Ki ([5]; binding affinity Ki [nM] hMOR): 22 nM

Question: `CN(CCO)[C@H](CNC(=O)NCCc1ccccc1)Cc1ccc(O)cc1` [DD186, (S)-1-(2-((2-hydroxyethyl)(methyl)amino)-3-(4-hydroxyphenyl)propyl)-3-phenethylurea] was tested. Which Ki [3] did it give?
Answer: The Ki was 1300 nM.

Question: And the Ki [4]?
Answer: Its Ki is 1800 nM.

Question: And the Ki [5]?
Answer: The Ki was 970 nM.
